Key:
Format in all cases: cell-based
Alternaria solani = assay: in vitro 96-well micro-titration test on Alternaria solani spores; settings: for EC95 (%): A. solani, Table 22, ingredient alone in water
Plasmopara viticola = assay: in vitro antifungal action of single ingredients on Plasmopara viticola
Source text: In Vitro Results Showing the Syngergistic Action of Yucca Juice with the Other Compounds of the Composition According to the Invention on A. solani, Z. tritici, and Plasmopara viticola,
The following tables show in vitro the synergistic antifungal action between yucca juice and the other compounds of the composition of the invention on various pathogens. The concentrations given are as a mass %. The solutions tested as aqueous solutions.
Mo denotes sodium molybdate, Bo denotes boron ethanolamine.

[1] = tested on: Septoria tritici (Zymoseptoria tritici); assay: in vitro 96-well micro-titration test on Septoria tritici / Zymoseptoria tritici; settings: for EC95 (%): Z. tritici, Table 23, ingredient alone in water
[2] = Concentration 0.05% mass of the stated aqueous solution

Row | Compound | EC95 (%) (Alternaria solani) | inhibition of A. solani, ingredient alone in water (Alternaria solani; [2]) [%] | inhibition of A. solani, ingredient alone in water (Alternaria solani; Concentration 0.50%) [%] | inhibition of A. solani, ingredient alone in water (Alternaria solani; Concentration 1.00%) [%] | inhibition of A. solani, ingredient alone in water (Alternaria solani; Concentration 2.00%) [%] | inhibition of A. solani, ingredient alone in water (Alternaria solani; Concentration 3.00%) [%] | inhibition of A. solani, ingredient alone in water (Alternaria solani; Concentration 6.00%) [%] | inhibition of A. solani, ingredient alone in water (Alternaria solani; Concentration 10.00%) [%] | in vitro activity against Plasmopara viticola, ingredient alone in water (Plasmopara viticola; Concentration 0.05%) [%] | in vitro activity against Plasmopara viticola, ingredient alone in water (Plasmopara viticola; Concentration 0.50%) [%] | in vitro activity against Plasmopara viticola, ingredient alone in water (Plasmopara viticola; Concentration 1.00%) [%] | in vitro activity against Plasmopara viticola, ingredient alone in water (Plasmopara viticola; Concentration 2.00%) [%] | inhibition of Z. tritici, ingredient alone in water ([1]; Concentration 0.05%) [%] | inhibition of Z. tritici, ingredient alone in water ([1]; Concentration 0.50%) [%] | inhibition of Z. tritici, ingredient alone in water ([1]; Concentration 1.00%) [%] | inhibition of Z. tritici, ingredient alone in water ([1]; Concentration 2.00%) [%] | inhibition of Z. tritici, ingredient alone in water ([1]; Concentration 3.00%) [%] | inhibition of Z. tritici, ingredient alone in water ([1]; Concentration 6.00%) [%] | inhibition of Z. tritici, ingredient alone in water ([1]; Concentration 10.00%) [%] | EC95 (%) [1] [%] | further results
1 | O=S(=O)([O-])[O-].[Mn+2] [Mn 3.7%] | >10 | −2.3 | 0.0 | 12.8 | 15.1 | 17.6 | 38.8 | 48.4 | 31.02 | 87.05 | 94.13 | 97.24 | 12.9 | 13.8 | 12.9 | 18.6 | 20.0 | 17.0 | 23.1 | >10 | in vitro activity against Plasmopara viticola, ingredient alone in water (Plasmopara viticola; Concentration 3.00%): 97.70%; in vitro activity against Plasmopara viticola, ingredient alone in water (Plasmopara viticola; Concentration 6.00%): 97.72%; in vitro activity against Plasmopara viticola, ingredient alone in water (Plasmopara viticola; Concentration 10.00%): 97.79%
2 | [Na+].[Na+].[O]=[Mo](=[O])([O-])[O-] [Mo 0.01%, sodium molybdate] | >10 | 2.2 | −1.2 | −7.4 | −1.3 | −1.8 | −1.5 | −0.4 | 15.33 | 46.43 | 53.15 | 72.42 | −1.7 | −1.1 | −2.3 | −2.2 | −1.8 | −1.6 | −2.2 | >10 | in vitro activity against Plasmopara viticola, ingredient alone in water (Plasmopara viticola; Concentration 3.00%): 74.22%; in vitro activity against Plasmopara viticola, ingredient alone in water (Plasmopara viticola; Concentration 6.00%): 74.22%; in vitro activity against Plasmopara viticola, ingredient alone in water (Plasmopara viticola; Concentration 10.00%): 96.02%
3 | [Cl-].[K+] [KCl 0.24%] | >10 | 1.2 | −3.6 | −3.9 | −8.9 | −1.3 | −1.2 | −2.9 | 10.83 | 51.35 | 69.10 | 75.81 | 4.7 | 2.2 | 1.4 | 0.1 | 0.3 | 7.9 | 3.8 | >10 | in vitro activity against Plasmopara viticola, ingredient alone in water (Plasmopara viticola; Concentration 3.00%): 83.20%; in vitro activity against Plasmopara viticola, ingredient alone in water (Plasmopara viticola; Concentration 6.00%): 94.91%; in vitro activity against Plasmopara viticola, ingredient alone in water (Plasmopara viticola; Concentration 10.00%): 97.43%
4 | O=S(=O)([O-])[O-].[Mn+2] [Mn 7%] | 6.4 | 0.0 | 16.9 | 29.6 | 73.2 | 89.4 | 94.5 | 101.1 | 25.41 | 89.41 | 94.78 | 97.25 | 11.3 | 27.6 | 33.5 | 28.7 | 28.0 | 29.0 | 29.5 | >10 | in vitro activity against Plasmopara viticola, ingredient alone in water (Plasmopara viticola; Concentration 3.00%): 97.53%; in vitro activity against Plasmopara viticola, ingredient alone in water (Plasmopara viticola; Concentration 6.00%): 97.69%; in vitro activity against Plasmopara viticola, ingredient alone in water (Plasmopara viticola; Concentration 10.00%): 97.64%
5 | O=S(=O)([O-])[O-].[Cu+2] [Cu 1.5%] | >10 | −2.8 | −1.4 | −1.9 | −1.8 | −4.9 | −1.8 | −2.9 | – | – | – | – | 11.9 | 17.3 | 22.1 | 23.6 | 20.9 | 24.1 | 28.2 | >10 | –
6 | O=S(=O)([O-])[O-].[Fe+2] [Fe 4%] | 2.3 | −4.7 | −4.3 | −0.4 | 49.6 | 100.0 | 100.0 | 100.0 | – | – | – | – | 9.8 | 37.1 | 38.8 | 54.9 | 100.0 | 100.0 | 100.0 | 2.86 | efficacy against Z. tritici (glume blotch) in vitro ([1]; dose of 0.5%): ~37%
